{"source": "patent US6048854A", "about": "“2,3-diaminopropionic acid derivative” (Sumitomo Pharmaceuticals Company, Limited, priority 1993, dated 2000)", "key": {"human fibronectin": {"system": "human fibronectin", "assay": "Binding assay of platelet to adhesive protein: fibronectin (receptor binding inhibition)", "conditions": "Table 4; fixed activated human platelets, 37° C., 60 minutes", "method_in_brief": "(§1)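 Washed human platelets, activated with 5 µM epinephrine and 30 µM ADP, then paraformaldehyde-fixed, added at 10^8/mL with compound to wells coated with 5 µg/mL fibrinogen (fibronectin-depleted), fibronectin or vitronectin; 60 min, 37 °C. Bound platelets detected with HRP anti-mouse IgG and o-phenylenediamine, A490.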"}, "platelet aggregation [1]": {"system": "platelet aggregation", "assay": "Platelet aggregation inhibitory activity (ex vivo) after oral administration", "type": "in vivo", "conditions": "Cavia porcellus, guinea pig, oral 0.1 mg/kg, ADP 10 μg/ml", "method_in_brief": "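Guinea pigs dosed orally at 0.1 mg/kg; citrated carotid blood taken before and at 0.5, 1, 2, 4 and 6 h. PRP aggregation induced by ADP (10 μg/ml final) at 37° C, measured turbidimetrically; inhibition = (1 − MAR sample/MAR predose) × 100.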"}, "human vitronectin": {"system": "human vitronectin", "assay": "Binding assay of platelet to adhesive protein: vitronectin (receptor binding inhibition)", "conditions": "Table 4; fixed activated human platelets, 37° C., 60 minutes; read-out: receptor binding inhibition (IC50), Bitronectin", "method_in_brief": "as §1"}, "platelet aggregation [2]": {"system": "platelet aggregation", "assay": "Platelet aggregation inhibitory activity (ADP-induced, human platelet rich plasma)", "type": "cell-based", "conditions": "Homo sapiens, Table 3, same manner as Example 17", "method_in_brief": "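Citrated human platelet-rich plasma […] was stirred with test compound for 2 min at 37 °C. Aggregation was then induced with ADP at 3 μg/ml final and monitored by nephelometry. IC50 is the concentration giving 50% inhibition of aggregation.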"}, "human fibrinogen": {"biological_target": "T1, human fibrinogen (Homo sapiens, UniProt P05106+P08514)", "T1 construct": "centrifuged at 11000 rpm for two minutes to give human platelet; from tissue", "T1 sequence (P08514 32-887 limits assumed)": "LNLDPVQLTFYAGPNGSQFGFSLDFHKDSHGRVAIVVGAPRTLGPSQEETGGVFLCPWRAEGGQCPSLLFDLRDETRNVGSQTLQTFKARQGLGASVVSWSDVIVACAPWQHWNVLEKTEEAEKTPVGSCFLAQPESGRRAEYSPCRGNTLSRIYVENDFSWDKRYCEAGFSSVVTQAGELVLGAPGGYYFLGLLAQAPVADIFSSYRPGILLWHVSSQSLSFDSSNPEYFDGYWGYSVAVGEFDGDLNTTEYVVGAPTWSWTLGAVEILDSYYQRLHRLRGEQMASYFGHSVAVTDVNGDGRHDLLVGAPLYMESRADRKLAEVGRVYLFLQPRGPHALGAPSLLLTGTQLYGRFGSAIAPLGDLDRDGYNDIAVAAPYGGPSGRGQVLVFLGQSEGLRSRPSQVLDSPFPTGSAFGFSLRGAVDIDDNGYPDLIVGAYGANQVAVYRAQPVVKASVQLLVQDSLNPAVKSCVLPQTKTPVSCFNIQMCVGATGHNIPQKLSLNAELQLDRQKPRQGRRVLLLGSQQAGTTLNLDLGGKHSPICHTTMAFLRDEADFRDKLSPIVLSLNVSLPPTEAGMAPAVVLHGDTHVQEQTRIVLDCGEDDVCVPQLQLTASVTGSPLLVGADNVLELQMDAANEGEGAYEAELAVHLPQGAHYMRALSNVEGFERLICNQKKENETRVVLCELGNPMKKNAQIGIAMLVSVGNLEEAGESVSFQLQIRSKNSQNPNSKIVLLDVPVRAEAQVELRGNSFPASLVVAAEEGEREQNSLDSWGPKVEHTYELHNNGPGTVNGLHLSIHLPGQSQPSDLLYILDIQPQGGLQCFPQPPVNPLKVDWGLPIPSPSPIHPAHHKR", "T1 sequence (P08514 891-1039 limits assumed)": "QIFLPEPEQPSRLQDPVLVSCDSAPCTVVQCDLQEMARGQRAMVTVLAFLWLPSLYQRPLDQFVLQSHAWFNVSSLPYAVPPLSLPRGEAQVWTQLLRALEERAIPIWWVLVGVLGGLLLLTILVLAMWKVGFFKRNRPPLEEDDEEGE", "T1 sequence (P05106 27-788)": "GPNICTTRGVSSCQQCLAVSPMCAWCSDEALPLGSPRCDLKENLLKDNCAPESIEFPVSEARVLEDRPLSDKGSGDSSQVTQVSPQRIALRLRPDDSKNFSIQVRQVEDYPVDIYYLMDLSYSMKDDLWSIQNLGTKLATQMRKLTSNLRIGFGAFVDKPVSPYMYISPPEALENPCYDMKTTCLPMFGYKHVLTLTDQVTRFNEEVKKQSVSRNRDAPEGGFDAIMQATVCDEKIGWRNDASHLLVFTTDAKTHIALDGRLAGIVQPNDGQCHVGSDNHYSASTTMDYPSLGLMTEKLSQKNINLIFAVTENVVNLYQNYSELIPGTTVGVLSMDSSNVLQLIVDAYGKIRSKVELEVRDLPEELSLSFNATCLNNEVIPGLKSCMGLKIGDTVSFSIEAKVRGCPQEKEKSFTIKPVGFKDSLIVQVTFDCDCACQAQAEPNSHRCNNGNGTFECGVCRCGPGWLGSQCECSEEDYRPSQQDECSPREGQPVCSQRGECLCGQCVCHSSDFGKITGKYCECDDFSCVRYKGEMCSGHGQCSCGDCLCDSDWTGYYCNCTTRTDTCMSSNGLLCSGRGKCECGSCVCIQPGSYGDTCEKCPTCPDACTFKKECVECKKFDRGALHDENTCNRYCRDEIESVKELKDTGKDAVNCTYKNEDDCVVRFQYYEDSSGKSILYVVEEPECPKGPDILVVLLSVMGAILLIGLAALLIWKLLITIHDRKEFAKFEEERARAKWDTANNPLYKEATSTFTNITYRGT", "assay": "Binding assay of platelet to adhesive protein: fibrinogen (receptor binding inhibition)", "conditions": "Table 4; fixed activated human platelets, 37° C., 60 minutes", "method_in_brief": "as §1"}}, "note": "Where two headings read alike, the source gives them in different places.", "data": [{"smiles": "COc1ccc(S(=O)(=O)N[C@@H](CNC(=O)CC2CCN(c3ccc(C(=N)N)cc3)CC2)C(=O)O)cc1", "note": "[Example 93, (2S)-3-(2-(1-(4-amidinophenyl)-4-piperidyl)ethanoylamino)-2-(4-methoxy)benzenesulfonylaminopropanoic Acid]", "values": [{"measurement": "IC50", "setting": "human fibronectin", "value": 95, "unit": "nM"}, {"measurement": "inhibition in vivo at 0.1 mg/kg", "setting": "platelet aggregation [1]; 0.5 hr, read-out: platelet aggregation inhibitory rate (%), 0.5 hr", "value": 4, "unit": "%"}, {"measurement": "inhibition in vivo at 0.1 mg/kg", "setting": "platelet aggregation [1]; 1 hr, read-out: platelet aggregation inhibitory rate (%), 1 hr", "value": 27, "unit": "%"}, {"measurement": "inhibition in vivo at 0.1 mg/kg", "setting": "platelet aggregation [1]; 2 hrs, read-out: platelet aggregation inhibitory rate (%), 2 hrs", "value": 69, "unit": "%"}, {"measurement": "inhibition in vivo at 0.1 mg/kg", "setting": "platelet aggregation [1]; 4 hrs, read-out: platelet aggregation inhibitory rate (%), 4 hrs", "value": 44, "unit": "%"}, {"measurement": "inhibition in vivo at 0.1 mg/kg", "setting": "platelet aggregation [1]; 6 hrs, read-out: platelet aggregation inhibitory rate (%), 6 hrs", "value": 12, "unit": "%"}, {"measurement": "IC50", "setting": "human vitronectin", "value": 3500, "unit": "nM"}, {"measurement": "IC50", "setting": "platelet aggregation [2]", "value": 93, "unit": "nM"}, {"measurement": "IC50", "setting": "human fibrinogen", "value": 15, "unit": "nM"}]}]}
